Results taken from US11129840B2, “Methods for identifying novel dosing regimens” (Zavante Therapeutics, Inc., priority 2017, dated 2021).

Tests used:
[1] = test system: Carbapenem-resistant Enterobacteriaceae (CRE) clinical isolates; assay: Susceptibility testing, CRE clinical isolates; assay type: cell-based; conditions: 50 isolates
Pa isolates = assay: Time kill assays against 12 isolates; assay type: cell-based, Pseudomonas aeruginosa; conditions: tested alone, FOS-S isolates; >3-log10 reduction at 12 and/or 24 hours
Procedure: Forty-three Pa isolates (recovered from unique patients) were selected for testing. […] Interactions between FOS and other agents were determined by double disc testing on Mueller Hinton agar. Discs containing 300 μg FOS and 50 G6P were used, along with commercially available Kirby Bauer discs for other agents. Intravenous FOS MIC breakpoints are not established. […] Time kill assays against 12 isolates were performed for FOS, CAZ-AVI, CFT-TAZ and PIP-TAZ (alone, and each agent in combination with FOS) at the respective MIC (or breakpoint MIC for resistant isolates). Bactericidal activity during time-kills was defined as >3-log10 reduction at 12 and/or 24 hours, compared to starting inoculum. Synergy during time-kills was defined as >2-log10 reduction at 12 and/or 24 hours, compared to best single agent alone.

[2] = test system: ESBL-producing K. pneumoniae isolate; assay: Time-kill kinetic analysis; assay type: cell-based, Klebsiella pneumoniae; conditions: CAZ ¼ and 1×MIC, by 4-8 h
Procedure: Broth microdilution for FOS (Mueller-Hinton broth supplemented with 25 μg/mL glucose-6-phosphate) and comparators was performed before performing TKK. TKK employed MIC multiples for FOS, and ¼ and 1×MIC of select comparators, and combinations of FOS and comparator. TKK were sampled for colony counts at T0, T2, T4, T8 and T24 hours (h). Two Klebsiella pneumoniae isolates (one KPC and one ESBL), two Pseudomonas aeruginosa isolates (non-MDR), and one Acinetobacter baumannii isolate (MDR) were tested.

Compound | Non-susceptiblity rate [1] [%] | % of isolates with bactericidal activity (Pa isolates) [%] | decrease in CFU [2]
ceftolozane-tazobactam [C-T] | 43 | 8 | –
Piperacillin-tazobactam [PTZ] | 96 | 8 | –
C[C@@H](O)[C@H]1C(=O)N2C(C(=O)O)=C(S[C@@H]3CN[C@H](C(=O)N(C)C)C3)[C@H](C)[C@H]12 [MEM, Meropenem] | 82 | – | –
C[C@@H](O)[C@H]1C(=O)N2C(C(=O)O)=C(SCCN=CN)C[C@H]12 [IMP, Imipenem] | 86 | – | –
Gentamicin | 54 | – | –
ceftazidime-avibactam [C-A] | 6 | 8 | –
CC(C)(O/N=C(\C(=O)N[C@@H]1C(=O)N2C(C(=O)[O-])=C(C[n+]3ccccc3)CS[C@H]12)c1csc(N)n1)C(=O)O [CAZ, ceftazidime] | 92 | – | 0.9-2.1 log10 CFU
